This note sets out measurements from PubChem BioAssay AID1259407 (Chemical Carcinogenesis Research Information System (CCRIS), 2018).

Activity calls are given as the source filed them. How the calls were made is not given here.

The data set relates to CCRIS mutagenicity, Ames/micronucleus/aberration tests. In words: CCRIS mutagenicity studies.
[1] abbreviates: Test System: AMES SALMONELLA TYPHIMURIUM, Strain/Indicator: TA98, Metabolic Activation: NONE, Method: PREINCUBATION
Setting [2] is: Test System: AMES SALMONELLA TYPHIMURIUM, Strain/Indicator: TA100, Metabolic Activation: NONE, Method: PREINCUBATION
Where [3] appears, read: Test System: AMES SALMONELLA TYPHIMURIUM, Strain/Indicator: TA1535, Metabolic Activation: NONE, Method: PREINCUBATION
Where [4] appears, read: Test System: AMES SALMONELLA TYPHIMURIUM, Strain/Indicator: TA1535, Metabolic Activation: NONE, Method: STANDARD PLATE.

On to `Clc1ccc(COC(Cn2ccnc2)c2ccc(Cl)cc2Cl)cc1` (centres undefined), for which the mutagenic call is “inactive; negative” (End Point: IN VITRO MICRONUCLEUS, Test System: HAMSTER V79 CELLS, Metabolic Activation: NONE); “inactive; negative” (Test System: AMES SALMONELLA TYPHIMURIUM, Strain/Indicator: TA97, Metabolic Activation: HAMSTER, LIVER, S-9, AROCLOR 1254 (10 OR 30%), Method: PREINCUBATION); “inactive; negative” (Test System: AMES SALMONELLA TYPHIMURIUM, Strain/Indicator: TA97, Metabolic Activation: NONE, Method: PREINCUBATION); “inactive; negative” (Test System: AMES SALMONELLA TYPHIMURIUM, Strain/Indicator: TA97, Metabolic Activation: RAT, LIVER, S-9, AROCLOR 1254 (10 OR 30%), Method: PREINCUBATION); “inactive; negative” (Test System: AMES SALMONELLA TYPHIMURIUM, Strain/Indicator: TA98, Metabolic Activation: HAMSTER, LIVER, S-9, AROCLOR 1254 (10 OR 30%), Method: PREINCUBATION); “inactive; negative” under setting [1]. For the same compound, the mutagenic call by setting is: (Test System: AMES SALMONELLA TYPHIMURIUM, Strain/Indicator: TA98, Metabolic Activation: RAT, LIVER, S-9, AROCLOR 1254 (10 OR 30%), Method: PREINCUBATION) “inactive; negative”; (Test System: AMES SALMONELLA TYPHIMURIUM, Strain/Indicator: TA100, Metabolic Activation: HAMSTER, LIVER, S-9, AROCLOR 1254 (10 OR 30%), Method: PREINCUBATION) “inactive; negative”; under setting [2], “inactive; negative”; (Test System: AMES SALMONELLA TYPHIMURIUM, Strain/Indicator: TA100, Metabolic Activation: RAT, LIVER, S-9, AROCLOR 1254 (10 OR 30%), Method: PREINCUBATION) “inactive; negative”; (Test System: AMES SALMONELLA TYPHIMURIUM, Strain/Indicator: TA1535, Metabolic Activation: HAMSTER, LIVER, S-9, AROCLOR 1254 (10 OR 30%), Method: PREINCUBATION) “inactive; negative”; under setting [3], “inactive; negative”. Besides, the mutagenic call (Test System: AMES SALMONELLA TYPHIMURIUM, Strain/Indicator: TA1535, Metabolic Activation: RAT, LIVER, S-9, AROCLOR 1254 (10 OR 30%), Method: PREINCUBATION) is “inactive; negative”.
With `Nc1ccc(Cc2ccc(N=O)c(Cl)c2)cc1Cl`, the mutagenic call is, setting by setting: under setting [1], “inactive; negative”; under setting [2], “inactive; negative”.
Turning to `CN1CCN=N1`, the mutagenic call under setting [4] is “active; positive”.
As to `CCN(CC)c1ccc(C(=C2C=CC(=[N+](CC)CC)C=C2)c2ccc(N(CC)CC)cc2)cc1`, the mutagenic call is, setting by setting: (Test System: AMES SALMONELLA TYPHIMURIUM, Strain/Indicator: TA98, Metabolic Activation: HAMSTER, LIVER, S-9, AROCLOR 1254 (10%), Method: STANDARD PLATE) “inactive; negative”; (Test System: AMES SALMONELLA TYPHIMURIUM, Strain/Indicator: TA98, Metabolic Activation: NONE, Method: STANDARD PLATE) “inactive; negative”; (Test System: AMES SALMONELLA TYPHIMURIUM, Strain/Indicator: TA98, Metabolic Activation: RAT, LIVER, S-9, AROCLOR 1254 (10%), Method: STANDARD PLATE) “inactive; negative”; (Test System: AMES SALMONELLA TYPHIMURIUM, Strain/Indicator: TA100, Metabolic Activation: HAMSTER, LIVER, S-9, AROCLOR 1254 (10%), Method: STANDARD PLATE) “inactive; negative”; (Test System: AMES SALMONELLA TYPHIMURIUM, Strain/Indicator: TA100, Metabolic Activation: NONE, Method: STANDARD PLATE) “inactive; negative”; (Test System: AMES SALMONELLA TYPHIMURIUM, Strain/Indicator: TA100, Metabolic Activation: RAT, LIVER, S-9, AROCLOR 1254 (10%), Method: STANDARD PLATE) “inactive; negative”. In addition, the mutagenic call runs as follows: under setting [4], “inactive; negative”; (Test System: AMES SALMONELLA TYPHIMURIUM, Strain/Indicator: TA1535, Metabolic Activation: RAT, LIVER, S-9, AROCLOR 1254 (10%), Method: STANDARD PLATE) “inactive; negative”; (Test System: AMES SALMONELLA TYPHIMURIUM, Strain/Indicator: TA1537, Metabolic Activation: HAMSTER, LIVER, S-9, AROCLOR 1254 (10%), Method: STANDARD PLATE) “inactive; negative”; (Test System: AMES SALMONELLA TYPHIMURIUM, Strain/Indicator: TA1537, Metabolic Activation: NONE, Method: STANDARD PLATE) “inactive; negative”; (Test System: AMES SALMONELLA TYPHIMURIUM, Strain/Indicator: TA1537, Metabolic Activation: RAT, LIVER, S-9, AROCLOR 1254 (10%), Method: STANDARD PLATE) “inactive; negative”; (Test System: AMES SALMONELLA TYPHIMURIUM, Strain/Indicator: TA1538, Metabolic Activation: HAMSTER, LIVER, S-9, AROCLOR 1254 (10%), Method: STANDARD PLATE) “inactive; negative”. The mutagenic call was “inactive; negative” (Test System: AMES SALMONELLA TYPHIMURIUM, Strain/Indicator: TA1538, Metabolic Activation: NONE, Method: STANDARD PLATE); “inactive; negative” (Test System: AMES SALMONELLA TYPHIMURIUM, Strain/Indicator: TA1538, Metabolic Activation: RAT, LIVER, S-9, AROCLOR 1254 (10%), Method: STANDARD PLATE); “inactive; negative” (Test System: Mouse lymphoma, Strain/Indicator: L5178Y (tk+/tk-), Metabolic Activation: None, Method: Suspension/plate); “inactive; inconclusive (previous results negative)” (Test System: Mouse lymphoma, Strain/Indicator: L5178Y (tk+/tk-), Metabolic Activation: Rat, Liver, S-9, Aroclor 1254, Method: Suspension/plate).
On to `Nc1ccc(N)c(S(=O)(=O)O)c1`, for which the mutagenic call by setting is: under setting [1], “inactive; negative”; (Test System: AMES SALMONELLA TYPHIMURIUM, Strain/Indicator: TA98, Metabolic Activation: RAT, LIVER, S-9, AROCLOR 1254, Method: PREINCUBATION) “inactive; negative”; under setting [2], “inactive; negative”; (Test System: AMES SALMONELLA TYPHIMURIUM, Strain/Indicator: TA100, Metabolic Activation: RAT, LIVER, S-9, AROCLOR 1254, Method: PREINCUBATION) “inactive; negative”; (Test System: UDS RODENT HEPATOCYTES, Strain/Indicator: THY INCORP (NON-S-PHASE), Metabolic Activation: NONE, Method: AUTORADIOGRAPHY) “active; positive”.
`Cc1c(C)c(Br)c(Br)c(Br)c1Br`: the mutagenic call (Test System: AMES SALMONELLA TYPHIMURIUM, Strain/Indicator: TA98, Metabolic Activation: HAMSTER, LIVER, S-9, AROCLOR 1254 (10%), Method: PREINCUBATION) is “inactive; negative”; the mutagenic call under setting [1] is “inactive; negative”; the mutagenic call (Test System: AMES SALMONELLA TYPHIMURIUM, Strain/Indicator: TA98, Metabolic Activation: RAT, LIVER, S-9, AROCLOR 1254 (10%), Method: PREINCUBATION) was “inactive; negative”; the mutagenic call (Test System: AMES SALMONELLA TYPHIMURIUM, Strain/Indicator: TA100, Metabolic Activation: HAMSTER, LIVER, S-9, AROCLOR 1254 (10%), Method: PREINCUBATION) is “inactive; negative”; the mutagenic call under setting [2] was “inactive; negative”; the mutagenic call (Test System: AMES SALMONELLA TYPHIMURIUM, Strain/Indicator: TA100, Metabolic Activation: RAT, LIVER, S-9, AROCLOR 1254 (10%), Method: PREINCUBATION) was “inactive; negative”. In addition, the mutagenic call is “inactive; negative” (Test System: AMES SALMONELLA TYPHIMURIUM, Strain/Indicator: TA1535, Metabolic Activation: HAMSTER, LIVER, S-9, AROCLOR 1254 (10%), Method: PREINCUBATION); “inactive; negative” under setting [3]; “inactive; negative” (Test System: AMES SALMONELLA TYPHIMURIUM, Strain/Indicator: TA1535, Metabolic Activation: RAT, LIVER, S-9, AROCLOR 1254 (10%), Method: PREINCUBATION); “inactive; negative” (Test System: AMES SALMONELLA TYPHIMURIUM, Strain/Indicator: TA1537, Metabolic Activation: HAMSTER, LIVER, S-9, AROCLOR 1254 (10%), Method: PREINCUBATION); “inactive; negative” (Test System: AMES SALMONELLA TYPHIMURIUM, Strain/Indicator: TA1537, Metabolic Activation: NONE, Method: PREINCUBATION); “inactive; negative” (Test System: AMES SALMONELLA TYPHIMURIUM, Strain/Indicator: TA1537, Metabolic Activation: RAT, LIVER, S-9, AROCLOR 1254 (10%), Method: PREINCUBATION).
